Measurements taken from patent US20140213576A1, “NOVEL COMPOUND USEFUL FOR THE TREATMENT OF DEGENERATIVE AND INFLAMMATORY DISEASES” (GALAPAGOS NV, priority 2013, published 2014).

How the values were obtained:
JAK3 = molecular target: T1, JAK3 (Homo sapiens, UniProt P52333); test: JAK3 Ki determination assay; assay type: biochemical; conditions: Lineweaver-Burk, varying ATP, polyGT substrate; read-out: Ki against JAK3
T1 construct: purchased Carna Biosciences 09CBS-0625B
T1 sequence (P52333 1-1124): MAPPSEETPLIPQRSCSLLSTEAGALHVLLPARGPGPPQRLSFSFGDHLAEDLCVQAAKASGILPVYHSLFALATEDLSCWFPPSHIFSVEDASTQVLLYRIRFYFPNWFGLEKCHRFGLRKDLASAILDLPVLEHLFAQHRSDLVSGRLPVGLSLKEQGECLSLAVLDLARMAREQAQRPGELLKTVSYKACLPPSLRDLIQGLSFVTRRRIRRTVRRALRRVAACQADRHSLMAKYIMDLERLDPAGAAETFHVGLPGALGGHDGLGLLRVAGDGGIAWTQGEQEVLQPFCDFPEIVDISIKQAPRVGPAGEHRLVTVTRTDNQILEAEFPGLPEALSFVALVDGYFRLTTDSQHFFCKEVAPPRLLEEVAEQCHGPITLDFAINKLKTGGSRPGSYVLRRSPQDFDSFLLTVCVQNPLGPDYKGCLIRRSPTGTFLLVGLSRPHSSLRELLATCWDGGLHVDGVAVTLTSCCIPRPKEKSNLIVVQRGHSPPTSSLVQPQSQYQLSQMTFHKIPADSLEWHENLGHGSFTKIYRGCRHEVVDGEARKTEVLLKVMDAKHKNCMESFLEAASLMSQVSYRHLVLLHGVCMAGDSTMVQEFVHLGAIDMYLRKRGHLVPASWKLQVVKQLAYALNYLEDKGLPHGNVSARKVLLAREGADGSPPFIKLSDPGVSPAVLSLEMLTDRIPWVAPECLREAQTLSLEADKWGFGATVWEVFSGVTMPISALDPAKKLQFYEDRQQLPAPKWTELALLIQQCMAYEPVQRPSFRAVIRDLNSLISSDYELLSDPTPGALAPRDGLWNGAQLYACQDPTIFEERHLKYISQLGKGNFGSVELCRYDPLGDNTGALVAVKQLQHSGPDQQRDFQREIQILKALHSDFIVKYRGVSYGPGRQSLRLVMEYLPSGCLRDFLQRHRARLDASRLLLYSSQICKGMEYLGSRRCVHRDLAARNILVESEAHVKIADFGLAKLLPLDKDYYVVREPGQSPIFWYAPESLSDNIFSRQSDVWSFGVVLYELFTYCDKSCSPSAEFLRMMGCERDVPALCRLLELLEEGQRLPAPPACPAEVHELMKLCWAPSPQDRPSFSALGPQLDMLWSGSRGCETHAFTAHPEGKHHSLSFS
Description: For the determination of Ki, different amounts of compound were mixed with the enzyme and the enzymatic reaction was followed as a function of ATP concentration. The Ki was determined by means of double reciprocal plotting of Km vs compound concentration (Lineweaver-Burk plot). JAK3 (Carna Biosciences, 09CBS-0625B) was used at a final concentration of 10 ng/mL. The substrate was Poly(Glu,Tyr)sodium salt (4:1), MW 20 000-50 000 (Sigma, P0275) The reaction was performed in 25 mM Tris pH 7.5, 0.01% Triton X-100, 0.5 mM EGTA, 2.5 mM DTT, 0.5 mM Na3VO4, 5 mM b-glycerolphosphate, 10 mM MgCl2 with varying concentrations of ATP and compound and stopped by addition of 150 mM phosphoric acid. Measurement of incorporated phosphate into the substrate polyGT was done by loading the samples on a filter plate (using a harvester, Perkin Elmer) and subsequent washing. Incorporated ^33P in polyGT was measured in a Topcount scintillation counter after addition of scintillation liquid to the filter plates (Perkin Elmer).

HeLa cells = test: JAK-STAT signalling assay (OSM-triggered pSTAT1(2)-luciferase reporter); assay type: cell-based; conditions: human OSM 33 ng/mL, STAT1 luciferase reporter, individual determinations
Description: HeLa cells were maintained in Dulbecco's Modified Eagle's Medium (DMEM) containing 10% heat inactivated fetal calf serum, 100 U/mL penicillin and 100 μg/mL streptomycin. HeLa cells were used at 70% confluence for transfection. 20,000 cells in 87 μL cell culture medium were transiently transfected with 40 ng pSTAT1(2)-luciferase reporter (Panomics), 8 ng of LacZ reporter as internal control reporter and 52 ng of pBSK using 0.32 μL Jet-PEI (Polyplus) as transfection reagent per well in 96-well plate format. After overnight incubation at 37° C., 5% CO2, transfection medium was removed. 81 μL of DMEM+1.5% heat inactivated fetal calf serum was added. […]
40 μL of cell lysate was used to read β-galactosidase activity by adding 180 μL β-Gal solution (30 μL ONPG 4 mg/mL+150 μL β-Galactosidase buffer (0.06 M Na2HPO4, 0.04 M NaH2PO4, 1 mM MgCl2)) for 20 min. The reaction was stopped by addition of 50 μL Na2CO3 1 M. Absorbance was read at 405 nm.
Luciferase activity was measured using 40 μL cell lysate plus 40 μL of Steadylite® as described by the manufacturer (Perkin Elmer), on the Envision (Perkin Elmer). […]
Percentage inhibition=((fluorescence determined in the presence of vehicle−fluorescence determined for sample with test compound present) divided by (fluorescence determined in the presence of vehicle−fluorescence determined for sample without trigger))[…]. […]

JAK2 = molecular target: T2, JAK2 (Homo sapiens, UniProt O60674); test: JAK2 Ki determination assay (kinase tracer 236 binding); conditions: binding experiment, 25 nM kinase tracer 236; read-out: Ki against JAK2
T2 construct: Recombinant human JAK2 catalytic domain (amino acids 808-1132; catalog number PV4210); purchased Invitrogen PV4210
Description: JAK2 (Invitrogen, PV4210) was used at a final concentration of 5 nM. The binding experiment was performed in 50 mM Hepes pH 7.5, 0.01% Brij-35, 10 mM MgCl2, 1 mM EGTA using 25 nM kinase tracer 236 (Invitrogen, PV5592) and 2 nM Eu-anti-GST (Invitrogen, PV5594) with varying compound concentrations. Detection of tracer was performed according to the manufacturer's procedure.

T2 sequence (O60674 808-1132): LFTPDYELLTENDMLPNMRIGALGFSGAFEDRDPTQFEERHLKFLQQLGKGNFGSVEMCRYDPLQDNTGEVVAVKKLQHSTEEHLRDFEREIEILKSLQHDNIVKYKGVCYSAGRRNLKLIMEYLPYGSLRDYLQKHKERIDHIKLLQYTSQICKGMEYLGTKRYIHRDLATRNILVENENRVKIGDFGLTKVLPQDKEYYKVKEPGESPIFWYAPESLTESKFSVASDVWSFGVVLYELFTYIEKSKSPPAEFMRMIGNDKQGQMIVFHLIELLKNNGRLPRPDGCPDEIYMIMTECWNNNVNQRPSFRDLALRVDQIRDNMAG

CCc1cc(C2CN(S(C)(=O)=O)C2)ncc1N(C)c1cc2c(cn1)ncn2C [Compound 1, [4-Ethyl-6-(1-methanesulfonyl-azetidin-3-yl)-pyridin-3-yl]-methyl-(1-methyl-1H-imidazo[4,5-d]pyridin-6-yl)-amine]
Ki (JAK3): 0.685 µM
IC50 (HeLa cells; Homo sapiens, HeLa): 1.65 µM
IC50 (HeLa cells; listed as compound of the invention): 1.66 µM
Ki (JAK2): 0.0626 µM
